Data set [1] relates to Staphylococcus aureus. Kind of data set: Bactericidal activity against thymidine kinase-deficient methicillin-resistant Staphylococcus aureus AH1252 infected in in vitro rat fibrin clot model assessed as reduction in bacterial colony at 3.5 ug/ml after 48 hrs. Type of data set: functional, organism-based.
The subject of data set [2] is Staphylococcus aureus. Kind of data set: Bactericidal activity against methicillin-resistant Staphylococcus aureus AW6 infected in in vitro human fibrin clot model assessed as log reduction in bacterial colony at 3.5 ug/ml after 24 hrs. Type of data set: functional.
Data set [3] relates to Staphylococcus aureus. Kind of data set: Bactericidal activity against thymidine kinase-deficient methicillin-resistant Staphylococcus aureus AH1252 infected in in vitro human fibrin clot model assessed as log reduction in bacterial colony at 3.5 ug/ml after 24 hrs. It is filed as functional.
A short description of data set [4]: Plasma protein binding in human. It is filed as ADME, cell-free. Conditions: read-out: PPB (converted).
Data set [5] concerns Staphylococcus aureus. The data set is described as follows: Bactericidal activity against methicillin-resistant Staphylococcus aureus AW6 at 3.5 ug/ml by time kill analysis in presence of 50% human serum and 1 ug/ml thymidine. It is filed as functional, organism-based.
Data set [6] relates to Staphylococcus aureus. The data set is described as follows: Antimicrobial activity against thymidine kinase-deficient methicillin-resistant Staphylococcus aureus AH1252 grown on CAMHB media after 24 hrs by broth microdilution method in presence of 50% human serum and 1 ug/ml thymidine. It is filed as functional. Particulars: AH1252, 24 h.
The test system of data set [7] is Staphylococcus aureus. Kind of data set: Bactericidal activity against methicillin-resistant Staphylococcus aureus AW6 at 3.5 ug/ml by time kill analysis in presence of 50% rat serum and 1 ug/ml thymidine. It is filed as functional, organism-based.
For data set [8], the system named is Staphylococcus aureus. The data set is described as follows: Antimicrobial activity against methicillin-resistant Staphylococcus aureus AW6 grown on CAMHB media after 24 hrs by broth microdilution method. It is filed as functional. Particulars: AW6, 24 h. Background: Dilution methods test growth across graded concentrations, often in twofold steps.
Data set [9] concerns Staphylococcus aureus. Kind of data set: Antimicrobial activity against methicillin-resistant Staphylococcus aureus AW6 grown on CAMHB media after 24 hrs by broth microdilution method in presence of 0.2 U/ml thymidine phosphorylase. Type of data set: functional. Conditions: AW6, 24 h.
The subject of data set [10] is Staphylococcus aureus. The data set is described as follows: Antimicrobial activity against methicillin-resistant Staphylococcus aureus AW6 grown on CAMHB media after 24 hrs by broth microdilution method in presence of 50% rat serum. Particulars: AW6, 24 h. It is filed as functional.
Data set [11] has as its system Staphylococcus aureus. Kind of data set: Antimicrobial activity against methicillin-resistant Staphylococcus aureus AW6 grown on CAMHB media after 24 hrs by broth microdilution method in presence of 50% rat serum and 0.2 U/ml thymidine phosphorylase. Particulars: AW6, 24 h. It is filed as functional.
The test system of data set [12] is Staphylococcus aureus. Kind of data set: Antimicrobial activity against methicillin-resistant Staphylococcus aureus AW6 grown on CAMHB media after 24 hrs by broth microdilution method in presence of protein depleted rat serum. Type of data set: functional. Particulars: AW6, 24 h.
For data set [13], the system named is Staphylococcus aureus. Kind of data set: Antimicrobial activity against methicillin-resistant Staphylococcus aureus AW6 grown on CAMHB media after 24 hrs by broth microdilution method in presence of 50% human serum. Type of data set: functional. Particulars: AW6, 24 h.
The test system of data set [14] is Staphylococcus aureus. Kind of data set: Antimicrobial activity against methicillin-resistant Staphylococcus aureus AW6 grown on CAMHB media after 24 hrs by broth microdilution method in presence of 50% human serum and 0.2 U/ml thymidine phosphorylase. It is filed as functional. Conditions: AW6, 24 h.
The subject of data set [15] is Staphylococcus aureus. The data set is described as follows: Antimicrobial activity against methicillin-resistant Staphylococcus aureus AW6 grown on CAMHB media after 24 hrs by broth microdilution method in presence of protein depleted human serum. Type of data set: functional. Conditions: AW6, 24 h.
Data set [16] relates to Staphylococcus aureus. Kind of data set: Antimicrobial activity against thymidine kinase-deficient methicillin-resistant Staphylococcus aureus AH1252 grown on CAMHB media after 24 hrs by broth microdilution method. It is filed as functional. Conditions: AH1252, 24 h.
Data set [17] deals with Staphylococcus aureus. The data set is described as follows: Antimicrobial activity against thymidine kinase-deficient methicillin-resistant Staphylococcus aureus AH1252 grown on CAMHB media after 24 hrs by broth microdilution method in presence of 0.2 U/ml thymidine phosphorylase. It is filed as functional. Conditions: AH1252, 24 h.
The test system of data set [18] is Staphylococcus aureus. The data set is described as follows: Antimicrobial activity against thymidine kinase-deficient methicillin-resistant Staphylococcus aureus AH1252 grown on CAMHB media after 24 hrs by broth microdilution method in presence of 50% rat serum. It is filed as functional. Particulars: AH1252, 24 h.
Data set [19] deals with Staphylococcus aureus. Kind of data set: Antimicrobial activity against thymidine kinase-deficient methicillin-resistant Staphylococcus aureus AH1252 grown on CAMHB media after 24 hrs by broth microdilution method in presence of 50% rat serum and 0.2 U/ml thymidine phosphorylase. Particulars: AH1252, 24 h. It is filed as functional.
The test system of data set [20] is Staphylococcus aureus. The data set is described as follows: Antimicrobial activity against thymidine kinase-deficient methicillin-resistant Staphylococcus aureus AH1252 grown on CAMHB media after 24 hrs by broth microdilution method in presence of protein depleted rat serum. Conditions: AH1252, 24 h. Type of data set: functional.
Data set [21] concerns Staphylococcus aureus. Kind of data set: Antimicrobial activity against thymidine kinase-deficient methicillin-resistant Staphylococcus aureus AH1252 grown on CAMHB media after 24 hrs by broth microdilution method in presence of 50% human serum. Type of data set: functional. Particulars: AH1252, 24 h.
Data set [22] relates to Staphylococcus aureus. Kind of data set: Antimicrobial activity against thymidine kinase-deficient methicillin-resistant Staphylococcus aureus AH1252 grown on CAMHB media after 24 hrs by broth microdilution method in presence of 50% human serum and 0.2 U/ml thymidine phosphorylase. It is filed as functional. Particulars: AH1252, 24 h.
Data set [23] relates to Staphylococcus aureus. The data set is described as follows: Antimicrobial activity against thymidine kinase-deficient methicillin-resistant Staphylococcus aureus AH1252 grown on CAMHB media after 24 hrs by broth microdilution method in presence of protein depleted human serum. It is filed as functional. Conditions: AH1252, 24 h.
A short description of data set [24]: Protein binding in human serum. Particulars: read-out: PB (converted). It is filed as ADME, cell-free.
A short description of data set [25]: Protein binding in rat serum. Conditions: read-out: PB (converted). Type of data set: ADME, cell-free.
The subject of data set [26] is Staphylococcus aureus. Kind of data set: Antimicrobial activity against methicillin-resistant Staphylococcus aureus AW6 grown on CAMHB media after 24 hrs by broth microdilution method in presence of 50% human serum and 1 ug/ml thymidine. It is filed as functional. Conditions: AW6, 24 h.
The subject of data set [27] is Staphylococcus aureus. Kind of data set: […] activity against methicillin-resistant Staphylococcus aureus AW6 assessed as loss of bacterial cell viability at 3.5 ug/ml by time kill analysis in presence of 50% rat serum. Type of data set: functional.
In data set [28] the test system is Staphylococcus aureus. The data set is described as follows: Bactericidal activity against thymidine kinase-deficient methicillin-resistant Staphylococcus aureus AH1252 assessed as loss of bacterial cell viability at 3.5 ug/ml by time kill analysis in presence of 50% rat serum. It is filed as functional, organism-based.
In data set [29] the test system is Staphylococcus aureus. The data set is described as follows: […] activity against methicillin-resistant Staphylococcus aureus AW6 assessed as loss of bacterial cell viability at 3.5 ug/ml measured within 8 hrs by time kill analysis in presence of 50% human serum. Type of data set: functional.
Data set [30] concerns Staphylococcus aureus. The data set is described as follows: Bactericidal activity against thymidine kinase-deficient methicillin-resistant Staphylococcus aureus AH1252 assessed as loss of bacterial cell viability at 3.5 ug/ml measured within 8 hrs by time kill analysis in presence of 50% human serum. Type of data set: functional.
The test system of data set [31] is Staphylococcus aureus. The data set is described as follows: Bactericidal activity against methicillin-resistant Staphylococcus aureus AW6 at 3.5 ug/ml by time kill analysis in presence of 50% rat serum and 0.2 U/ml thymidine phosphorylase. Type of data set: functional, organism-based.
Data set [32] concerns Staphylococcus aureus. The data set is described as follows: Bacteriostatic activity against methicillin-resistant Staphylococcus aureus AW6 infected in in vitro rat fibrin clot model assessed as reduction in bacterial colony at 3.5 ug/ml after 48 hrs. It is filed as functional, organism-based.
Data set [33] has as its system Staphylococcus aureus. Kind of data set: Bactericidal activity against methicillin-resistant Staphylococcus aureus AW6 infected in in vitro rat fibrin clot model assessed as reduction in bacterial colony at 40 ug/ml after 48 hrs. It is filed as functional, organism-based.
Data set [34] has as its system Staphylococcus aureus. Kind of data set: Bactericidal activity against thymidine kinase-deficient methicillin-resistant Staphylococcus aureus AH1252 infected in in vitro rat fibrin clot model assessed as reduction in bacterial colony at 40 ug/ml after 48 hrs. Type of data set: functional, organism-based.
The subject of data set [35] is Staphylococcus aureus. Kind of data set: Bacteriostatic activity against methicillin-resistant Staphylococcus aureus AW6 infected in in vitro human fibrin clot model assessed as reduction in bacterial colony at 40 ug/ml after 24 hrs. Type of data set: functional, organism-based.
For data set [36], the system named is Staphylococcus aureus. The data set is described as follows: Bactericidal activity against thymidine kinase-deficient methicillin-resistant Staphylococcus aureus AH1252 infected in in vitro rat fibrin clot model assessed as reduction in bacterial colony at 40 ug/ml after 24 hrs. Type of data set: functional, organism-based.
Data set [37] relates to Staphylococcus aureus. Kind of data set: Bactericidal activity against methicillin-resistant Staphylococcus aureus AW6 at 40 ug/ml by time kill analysis in presence of 50% rat serum. It is filed as functional, organism-based.
Data set [38] has as its system Staphylococcus aureus. Kind of data set: Bactericidal activity against methicillin-resistant Staphylococcus aureus AW6 at 40 ug/ml by time kill analysis in presence of 50% human serum. Type of data set: functional, organism-based.
For data set [39], the system named is Staphylococcus aureus. Kind of data set: Bactericidal activity against thymidine kinase-deficient methicillin-resistant Staphylococcus aureus AH1252 at 40 ug/ml by time kill analysis in presence of 50% rat serum. Type of data set: functional, organism-based.
The test system of data set [40] is Staphylococcus aureus. The data set is described as follows: Bactericidal activity against thymidine kinase-deficient methicillin-resistant Staphylococcus aureus AH1252 at 40 ug/ml by time kill analysis in presence of 50% human serum. Type of data set: functional, organism-based.

Structures are written as SMILES. Values after ≈ are worked out from the molar mass of the structure shown. Active and inactive are the calls of the source. No cut-off for these calls is given here.

Usually MIC stands for the lowest concentration that inhibits growth of the organism. Take `COc1cc(Cc2cnc(N)nc2N)c2c(c1OC)OC(C1CC1)C=C2` (stereo not given) [ICLAPRIM]: the outcome with Staphylococcus aureus [1], in the data set on Staphylococcus aureus [28], in the data set with Staphylococcus aureus [31] and in the data set on Staphylococcus aureus [32] was Active. Moreover, the log10CFU/ml entry with Staphylococcus aureus [2], with Staphylococcus aureus [3], in the data set with Staphylococcus aureus [27], in the data set on Staphylococcus aureus [29] and with Staphylococcus aureus [30] was “>=3” in each case. For the same compound, the fraction unbound in data set [4] is 0.07; in data set [24], 0.05; in data set [25], 0.1. In addition, the outcome with Staphylococcus aureus [5] and in the data set with Staphylococcus aureus [7] was inactive. The minimum inhibitory concentration (MIC) in the data set with Staphylococcus aureus [6] was 0.03 µg/mL; with Staphylococcus aureus [8], 0.06 µg/mL (≈ 0.169 µM); with Staphylococcus aureus [9] it was 0.03 µg/mL; in the data set with Staphylococcus aureus [10] it was over 2 µg/mL; in the data set with Staphylococcus aureus [11] it was 0.06 µg/mL; in the data set on Staphylococcus aureus [12], over 2 µg/mL. Also, the MIC in the data set on Staphylococcus aureus [13] amounted to 0.12 µg/mL; with Staphylococcus aureus [14], 0.2 µg/mL; in the data set with Staphylococcus aureus [15], 0.03 µg/mL; against Staphylococcus aureus [16], 0.03 µg/mL (≈ 0.0846 µM); in the data set with Staphylococcus aureus [17] it was 0.03 µg/mL; in the data set with Staphylococcus aureus [18], 0.03 µg/mL. For the same compound, the MIC in the data set with Staphylococcus aureus [19] is 0.03 µg/mL; with Staphylococcus aureus [20] it was 0.06 µg/mL; in the data set with Staphylococcus aureus [21] it was 0.06 µg/mL; in the data set with Staphylococcus aureus [22], 0.06 µg/mL; in the data set on Staphylococcus aureus [23], 0.03 µg/mL; in the data set on Staphylococcus aureus [26], over 2 µg/mL.
For the compound `CN[C@H](CC(C)C)C(=O)N[C@H]1C(=O)N[C@@H](CC(N)=O)C(=O)N[C@H]2C(=O)N[C@H]3C(=O)N[C@H](C(=O)N[C@H](C(=O)O)c4cc(O)cc(O)c4-c4cc3ccc4O)[C@H](O)c3ccc(c(Cl)c3)Oc3cc2cc(c3O[C@@H]2O[C@H](CO)[C@@H](O)[C@H](O)[C@H]2O[C@H]2C[C@](C)(N)[C@H](O)[C@H](C)O2)Oc2ccc(cc2Cl)[C@H]1O`, the outcome in the data set with Staphylococcus aureus [33], in the data set with Staphylococcus aureus [34], in the data set with Staphylococcus aureus [35], in the data set with Staphylococcus aureus [36], in the data set on Staphylococcus aureus [37] and in the data set with Staphylococcus aureus [38] was Active. Also, the outcome in the data set with Staphylococcus aureus [39] and in the data set on Staphylococcus aureus [40] was Active.

The values above are taken from ChEMBL document CHEMBL1671660, “Efficacy of iclaprim against wild-type and thymidine kinase-deficient methicillin-resistant Staphylococcus aureus isolates in an in vitro fibrin clot model” (Antimicrob Agents Chemother, 2009).
